Like-named read-outs stand apart in the source and are kept apart here. Starred links: 1 amine or outer side, 2 acyl side, 3 side chain; linkers in the order of their positions; H or OH if unused. Non-standard residues stand in square brackets, D forms with d. Residues, ends and D or L forms follow the SMILES beside them. Groups on a side chain read outwards from the residue. *: point of attachment. C18 diacid = O=C(O)CCCCCCCCCCCCCCCCC(=O)*; αMePhe(2-F) = C[C@](N)(Cc1ccccc1F)C(=O)O; γGlu = O=C(O)[C@H](CCC(=O)[*:2])N[*:1]; αMe4Pal = C[C@](N)(Cc1ccncc1)C(=O)O; αMeY = C[C@](N)(Cc1ccc(O)cc1)C(=O)O; 4Pal = N[C@@H](Cc1ccncc1)C(=O)O; αMeL = CC(C)C[C@](C)(N)C(=O)O; αMeS = C[C@](N)(CO)C(=O)O; Orn = NCCC[C@H](N)C(=O)O; AEEA = NCCOCCOCC(=O)O; Aib = CC(C)(N)C(=O)O
Tests used:
Type in all cases: cell-based
hGIPR [1] = biological target: T1, hGIPR (Homo sapiens, UniProt P48546); assay: Functional cAMP activity in the presence of 1% HSA; details: read-out: cAMP Rel EC50, hGIPR
T1 sequence (P48546 22-466): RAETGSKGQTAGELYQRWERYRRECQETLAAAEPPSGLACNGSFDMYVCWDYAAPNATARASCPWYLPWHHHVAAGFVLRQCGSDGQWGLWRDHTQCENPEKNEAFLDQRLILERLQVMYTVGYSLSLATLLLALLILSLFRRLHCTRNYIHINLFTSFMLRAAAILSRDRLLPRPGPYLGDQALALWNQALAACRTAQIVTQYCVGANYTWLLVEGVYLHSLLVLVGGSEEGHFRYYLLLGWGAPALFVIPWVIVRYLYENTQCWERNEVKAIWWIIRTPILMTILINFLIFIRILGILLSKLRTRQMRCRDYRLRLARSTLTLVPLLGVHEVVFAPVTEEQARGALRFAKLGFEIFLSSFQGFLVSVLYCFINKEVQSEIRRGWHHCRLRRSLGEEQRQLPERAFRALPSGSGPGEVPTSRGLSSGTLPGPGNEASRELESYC

hGLP-1R [2] = biological target: T2, hGLP-1R (Homo sapiens, UniProt P43220); assay: Functional cAMP activity in the presence of 1% HSA; details: read-out: cAMP Rel EC50, hGLP-1R
T2 sequence (P43220 24-463): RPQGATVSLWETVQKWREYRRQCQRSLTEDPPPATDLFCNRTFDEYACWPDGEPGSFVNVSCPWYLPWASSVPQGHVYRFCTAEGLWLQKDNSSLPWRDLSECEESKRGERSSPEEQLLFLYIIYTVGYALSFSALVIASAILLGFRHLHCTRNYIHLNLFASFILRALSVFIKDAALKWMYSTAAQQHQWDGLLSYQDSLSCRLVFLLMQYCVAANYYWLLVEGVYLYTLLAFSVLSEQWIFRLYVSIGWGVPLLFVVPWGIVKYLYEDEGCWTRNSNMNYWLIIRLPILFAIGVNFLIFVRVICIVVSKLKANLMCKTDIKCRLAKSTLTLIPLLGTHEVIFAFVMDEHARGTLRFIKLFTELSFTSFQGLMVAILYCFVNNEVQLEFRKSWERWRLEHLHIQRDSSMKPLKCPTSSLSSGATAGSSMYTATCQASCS

human GcgR = human GcgR (Homo sapiens, UniProt P47871); assay: Functional cAMP activity in the presence of 1% HSA; details: read-out: cAMP Rel EC50, hGcgR
human GcgR, sequence (P47871 26-477): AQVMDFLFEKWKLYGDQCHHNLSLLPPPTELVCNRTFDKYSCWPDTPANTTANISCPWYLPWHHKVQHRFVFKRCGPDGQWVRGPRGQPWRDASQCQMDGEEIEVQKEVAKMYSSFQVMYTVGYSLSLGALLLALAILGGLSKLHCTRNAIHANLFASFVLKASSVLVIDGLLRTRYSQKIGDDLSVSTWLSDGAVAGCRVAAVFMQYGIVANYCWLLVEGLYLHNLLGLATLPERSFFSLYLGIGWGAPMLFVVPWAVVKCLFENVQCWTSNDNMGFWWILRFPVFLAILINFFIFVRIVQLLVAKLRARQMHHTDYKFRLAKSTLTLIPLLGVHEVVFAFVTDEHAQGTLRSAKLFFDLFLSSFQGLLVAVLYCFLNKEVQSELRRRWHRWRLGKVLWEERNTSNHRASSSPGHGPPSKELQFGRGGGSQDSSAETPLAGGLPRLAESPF

hGIPR [3] = biological target: T1, hGIPR; assay: Functional cAMP activation in the presence of 0.1% casein (no HSA); details: read-out: Relative cAMP EC50, hGIPR;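 as to Relative cAMP EC50, hGIPR: intracellular cAMP rise after 30 min at 37 °C read by HTRF against a standard curve, scaled between buffer alone (0%) and top control ligand concentration (100%), four-parameter fit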;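 as to Relative cAMP EC50, hGLP-1R: intracellular cAMP rise after 30 min at 37 °C read by HTRF, normalized between buffer only (0%) and maximal control ligand (100%), four-parameter variable-slope fit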;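 as to Relative cAMP EC50, hGcgR: intracellular cAMP rise after 30 min at 37 °C, read by HTRF against a cAMP standard curve, scaled from buffer only (0%) to maximal control ligand response (100%)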
hGLP-1R [4] = biological target: T2, hGLP-1R; assay: as above; details: read-out: Relative cAMP EC50, hGLP-1R
hGcgR = hGcgR (Homo sapiens, UniProt P47871); assay: as above; details: read-out: Relative cAMP EC50, hGcgR;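 also: intracellular cAMP rise after 30 min at 37 °C, read by HTRF against a cAMP standard curve, scaled from buffer only (0%) to maximal control ligand response (100%)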
hGcgR, sequence (P47871 26-477): as above

[5] = in the presence of 0.1% casein (no HSA), geometric mean
[6] = HEK-293 clonal cell line, in the presence of 1% HSA, geometric mean of relative EC50

Compound	EC50 (hGIPR [1])	EC50 (hGLP-1R [2])	EC50 (human GcgR)	EC50 (hGIPR [3])	EC50 (hGLP-1R [4])	EC50 (hGcgR)	EC50 (hGIPR [3]; [5])	EC50 (hGLP-1R [4]; [5])	EC50 (hGcgR; [5])	EC50 (hGIPR [1]; [6])	EC50 (hGLP-1R [2]; [6])	EC50 (human GcgR; [6])
CC[C@H](C)[C@H](NC(=O)[C@H](CC(C)C)NC(=O)[C@](C)(Cc1ccc(O)cc1)NC(=O)[C@@H](CCC(=O)O)NC(=O)[C@@H](NC(=O)[C@H](Cc1ccccc1)NC(=O)[C@H](CCC(=O)O)NC(=O)C(C)(C)NC(=O)[C@H](C)NC(=O)[C@H](C)NC(=O)[C@H](CCCCNC(=O)COCCOCCNC(=O)CC[C@H](NC(=O)CCCCCCCCCCCCCCCCC(=O)O)C(=O)O)NC(=O)[C@H](CCCN)NC(=O)[C@H](CC(=O)O)NC(=O)[C@H](CC(C)C)NC(=O)[C@](C)(CC(C)C)NC(=O)[C@@H](NC(=O)[C@](C)(CO)NC(=O)[C@H](Cc1ccncc1)NC(=O)[C@H](CC(=O)O)NC(=O)[C@H](CO)NC(=O)[C@@H](NC(=O)[C@](C)(Cc1ccccc1F)NC(=O)[C@@H](NC(=O)CNC(=O)[C@H](CCC(N)=O)NC(=O)C(C)(C)NC(=O)[C@@H](N)Cc1ccc(O)cc1)[C@@H](C)O)[C@@H](C)O)[C@@H](C)CC)[C@@H](C)CC)C(=O)N[C@@H](CCC(=O)O)C(=O)NCC(=O)NCC(=O)N1CCC[C@H]1C(=O)N[C@@H](CO)C(=O)N[C@@H](CO)C(=O)NCC(=O)N[C@@H](CCC(=O)O)C(=O)N1CCC[C@H]1C(=O)N1CCC[C@H]1C(=O)N1CCC[C@H]1C(=O)N[C@@H](CO)C(=O)NCC(=O)N[C@@H](CO)C(N)=O [Example 707]	1.05 nM	30.6 nM	199 nM	0.0107 nM	0.248 nM	1.06 nM						
H-Y[Aib]QGTFTSD[4Pal]SK[αMeL]LDKK([AEEA-γGlu-C18 diacid])AQ[Aib]AFIEYLIE[Aib]GPSSGAPPPSGSEEE-NH2 [Example 903]	31.2 nM	387 nM	1630 nM				0.277 nM	2.7 nM	12.9 nM			
CC[C@H](C)[C@H](NC(=O)[C@H](Cc1ccccc1)NC(=O)[C@H](C)NC(=O)C(C)(C)NC(=O)[C@H](CCC(N)=O)NC(=O)[C@H](C)NC(=O)[C@H](CCCCNC(=O)COCCOCCNC(=O)CC[C@H](NC(=O)CCCCCCCCCCCCCCCCC(=O)O)C(=O)O)NC(=O)[C@H](CCCCN)NC(=O)[C@H](CC(=O)O)NC(=O)[C@H](CC(C)C)NC(=O)[C@](C)(CC(C)C)NC(=O)[C@@H](NC(=O)[C@H](CO)NC(=O)[C@H](Cc1ccc(O)cc1)NC(=O)[C@H](CC(=O)O)NC(=O)[C@H](CO)NC(=O)[C@@H](NC(=O)[C@](C)(Cc1ccccc1F)NC(=O)[C@@H](NC(=O)CNC(=O)[C@H](CCC(N)=O)NC(=O)C(C)(C)NC(=O)[C@@H](N)Cc1ccc(O)cc1)[C@@H](C)O)[C@@H](C)O)[C@@H](C)CC)C(=O)N[C@@H](CCC(=O)O)C(=O)N[C@@H](Cc1ccc(O)cc1)C(=O)N[C@@H](CC(C)C)C(=O)N[C@@H](CCC(=O)O)C(=O)N[C@@H](CCC(=O)O)C(=O)NCC(=O)NCC(=O)N1CCC[C@H]1C(=O)N[C@@H](CO)C(=O)N[C@@H](CO)C(=O)NCC(=O)N[C@@H](C)C(=O)N1CCC[C@H]1C(=O)N1CCC[C@H]1C(=O)N1CCC[C@H]1C(=O)N[C@@H](CO)C(N)=O [Example 421] (H-Y[Aib]QGT[αMePhe(2-F)]TSDYSI[αMeL]LDKK([AEEA-γGlu-C18 diacid])AQ[Aib]AFIEYLEEGGPSSGAPPPS-NH2)	2.98 nM	31.9 nM	468 nM	0.0132 nM	0.21 nM	3.25 nM						
CC[C@H](C)[C@H](NC(=O)[C@H](CO)NC(=O)[C@H](Cc1ccc(O)cc1)NC(=O)[C@H](CC(=O)O)NC(=O)[C@H](CO)NC(=O)[C@@H](NC(=O)[C@](C)(Cc1ccccc1F)NC(=O)[C@@H](NC(=O)CNC(=O)[C@H](CCC(N)=O)NC(=O)C(C)(C)NC(=O)[C@@H](N)Cc1ccc(O)cc1)[C@@H](C)O)[C@@H](C)O)C(=O)N[C@@H](CC(C)C)C(=O)N[C@@H](CC(C)C)C(=O)N[C@@H](CC(=O)O)C(=O)N[C@@H](CCCN)C(=O)N[C@@H](CCCCNC(=O)CC[C@H](NC(=O)CC[C@H](NC(=O)CCCCCCCCCCCCCCCCC(=O)O)C(=O)O)C(=O)O)C(=O)N[C@@H](C)C(=O)N[C@@H](CCC(N)=O)C(=O)NC(C)(C)C(=O)N[C@@H](C)C(=O)N[C@@H](Cc1ccccc1)C(=O)N[C@H](C(=O)N[C@H](CCC(=O)O)C(=O)N[C@@H](Cc1ccc(O)cc1)C(=O)N[C@@H](CC(C)C)C(=O)N[C@@H](CC(C)C)C(=O)N[C@@H](CCC(=O)O)C(=O)NCC(=O)NCC(=O)N1CCC[C@H]1C(=O)N[C@@H](CO)C(=O)N[C@@H](CO)C(=O)NCC(=O)N[C@@H](C)C(=O)N1CCC[C@H]1C(=O)N1CCC[C@H]1C(=O)N1CCC[C@H]1C(=O)N[C@@H](CO)C(N)=O)[C@@H](C)CC [Example 428]	4.55 nM	38.2 nM	536 nM	0.01 nM	0.207 nM	2.35 nM						
H-Y[Aib]QGT[αMePhe(2-F)]TSD[4Pal][αMeS]I[αMeL]LD[Orn]K([AEEA-γGlu-C18 diacid])AQ[αMe4Pal]EFI[dE][αMeY]LVEGGPSSGEPPPESE-NH2 [Example 1157]	1.28 nM	57.5 nM	384 nM				0.0124 nM	0.408 nM	2.04 nM			
H-Y[Aib]QGTFTSDFSK[αMeL]LDKK([AEEA-γGlu-C18 diacid])AQ[Aib]AFIEYLIE[Aib]GESSGAPPPSGS-NH2 [Example 216]	12 nM	90.6 nM	895 nM				0.0887 nM	0.52 nM	2.7 nM			
H-Y[Aib]QGT[αMePhe(2-F)]TSD[4Pal][αMeS]I[αMeL]LD[Orn]K([AEEA-γGlu-C18 diacid])AQ[αMe4Pal]EFI[dE][αMeY]LVEGGPSSGAPPPSGSE-NH2 [Example 751]	1.27 nM	32.3 nM	267 nM	0.00759 nM	0.302 nM	1.9 nM						
H-Y[Aib]QGTFTSD[4Pal]SQ[αMeL]LD[Orn]K([γGlu-γGlu-C18 diacid])AQ[αMe4Pal]AFIEYLIAGGPSSGEPPPSGTEEE-NH2 [Example 986]							0.299 nM	3.06 nM	4.94 nM	31.3 nM	380 nM	702 nM
H-Y[Aib]QGTFTSDFS[Orn][αMeL]LDKK([AEEA-γGlu-C18 diacid])AQ[Aib]AFIEYLLAGGPSSGEPPPEGS-NH2 [Example 152]	23.2 nM	491 nM	1090 nM				0.259 nM	4.03 nM	6.91 nM			
H-Y[Aib]QGT[αMePhe(2-F)]TSD[4Pal][αMeS]I[αMeL]LD[Orn]K([γGlu-γGlu-C18 diacid])AQ[Aib][Orn]FI[dE][αMeY]LQEGGPSSGEPPPSGTEEE-NH2 [Example 573]	3.15 nM	31.6 nM	388 nM	0.0342 nM	0.416 nM	4.02 nM						
H-Y[Aib]QGTFTSD[4Pal]S[Orn][αMeL]LDKK([γGlu-γGlu-γGlu-C18 diacid])AQ[αMe4Pal]AFIEYLIE[Aib]GPSSGAPPPSGS-NH2 [Example 866]	23.8 nM	483 nM	669 nM				0.148 nM	4.01 nM	4.48 nM			
H-Y[Aib]QGT[αMePhe(2-F)]TSD[4Pal][αMeS]I[αMeL]LD[Orn]K([AEEA-γGlu-γGlu-C18 diacid])AQ[Aib][Orn]FIEYLIEAGPSSGEPPPEEG-NH2 [Example 485]	0.869 nM	11.8 nM	298 nM	0.0194 nM	0.277 nM	4.29 nM						

From patent publication US20240270821A1, “GIP/GLP1/GCG TRI-RECEPTOR AGONISTS AND USES THEREOF” (priority 2023, published 2024)
